Patent publication US9656971B2, “COMT inhibitors” (Hoffmann-La Roche Inc., priority 2012, dated 2017)
Structures can show the parent of a compound that is named as a salt. Where two headings read alike, the source gives them in different places.

Legend:
Rec. human COMT = target: T1, Rec. human COMT (Homo sapiens, UniProt P21964); test: COMT-Fluorescence Assay; type: biochemical; settings: rec. human COMT 25 nM, 4-Nitrocatechol-Alexa488 200 nM, SAM 500 nM
T1 sequence (P21964 1-271): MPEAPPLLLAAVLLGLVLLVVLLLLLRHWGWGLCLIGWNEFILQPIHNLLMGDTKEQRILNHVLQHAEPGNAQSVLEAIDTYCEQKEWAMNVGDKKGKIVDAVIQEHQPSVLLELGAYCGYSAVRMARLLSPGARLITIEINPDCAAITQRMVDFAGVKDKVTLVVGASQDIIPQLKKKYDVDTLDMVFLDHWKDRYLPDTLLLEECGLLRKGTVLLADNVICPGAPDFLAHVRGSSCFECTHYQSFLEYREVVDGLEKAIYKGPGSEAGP
Protocol: This intramolecular interaction is disturbed if the 4-Nitrocatechol is methylated. […] This increase of fluorescence intensity can be followed in a kinetic measurement. The slope in the linear range of the kinetic is calculated. An inhibitor compound decreases the slope.
Signal [rfu/min]=(rfu(end-point)−rfu(startpoint))/incubation_time_#2

[1] = test system: patients with major depressive disorder (MDD); settings: open clinical trial, 21 patients with MDD, 8 weeks, 400 mg b.i.d.; cited from earlier work
[2] = in vivo; cited from earlier work
rat anhedonia model = settings: cited from earlier work
[3] = COMT-fluorescence assay, read-out: IC50

| IC50 (Rec. human COMT; [3]) [nM] | Structure (SMILES) | further results |
| --- | --- | --- |
| 130 | CN(C)CCCc1ccccc1-c1cc(O)c2nc[nH]c(=O)c2c1 [Example 243, 6-(2-(3-(Dimethylamino)propyl)phenyl)-8-hydroxyquinazolin-4(3H)-one] | – |
| 150 | O=c1[nH]cnc2c(O)c(F)c(Br)c(-c3ccc(F)cc3)c12 [Example 244, 6-Bromo-7-fluoro-5-(4-fluoro-phenyl)-8-hydroxy-3H-quinazolin-4-one] | – |
| 730 | O=c1[nH]cnc2c(O)c(Cl)c(-c3ccc(F)cc3)cc12 [Example 245, 7-Chloro-6-(4-fluorophenyl)-8-hydroxyquinazolin-4(3H)-one] | – |
| 1590 | O=c1[nH]cnc2c(O)c(Cl)c(Br)cc12 [Example 246, 6-Bromo-7-chloro-8-hydroxyquinazolin-4(3H)-one] | – |
| – | CN(C)CCc1cccc(-c2cc(O)c3nc[nH]c(=O)c3c2)c1 [Example 247, 6-(3-(2-(Dimethylamino)ethyl)phenyl)-8-hydroxyquinazolin-4(3H)-one] | IC50 (Rec. human COMT; IC50, COMT-fluorescence assay): 50 nM |
| 100 | O=c1[nH]cnc2c(O)cc(-c3ccccc3CCCCN3CCCC3)cc12 [Example 248, 8-Hydroxy-6-(2-(4-(pyrrolidin-1-yl)butyl)phenyl)quinazolin-4(3H)-one] | – |
| 3230 | CCCS(=O)(=O)c1ccccc1-c1cc(O)c2nc[nH]c(=O)c2c1 [Example 249, 8-Hydroxy-6-(2-(propylsulfonyl)phenyl)quinazolin-4(3H)-one] | – |
| 1140 | CN(C)S(=O)(=O)c1ccccc1-c1cc(O)c2nc[nH]c(=O)c2c1 [Example 250, 2-(8-Hydroxy-4-oxo-3,4-dihydro-quinazolin-6-yl)-N,N-dimethyl-benzenesulfonamide] | – |
| 740 | O=c1[nH]cnc2c(O)cc(-c3ccccc3S(=O)(=O)N3CCCCC3)cc12 [Example 251, 8-Hydroxy-6-[2-(piperidine-1-sulfonyl)-phenyl]-3H-quinazolin-4-one] | – |
| 30 | O=c1[nH]cnc2c(O)cc(-c3ccc(F)cc3)c([N+](=O)[O-])c12 [Example 252, 6-(4-Fluoro-phenyl)-8-hydroxy-5-nitro-3H-quinazolin-4-one] | – |
| 100 | Nc1c(-c2ccc(F)cc2)cc(O)c2nc[nH]c(=O)c12 [Example 253, 5-Amino-6-(4-fluorophenyl)-8-hydroxyquinazolin-4(3H)-one hydrobromide] | – |
| 1400 | O=C(Nc1c(-c2ccc(F)cc2)cc(O)c2nc[nH]c(=O)c12)c1ccccc1 [Example 254, N-(6-(4-Fluorophenyl)-8-hydroxy-4-oxo-3,4-dihydroquinazolin-5-yl)benzamide] | – |
| 120 | O=c1[nH]cnc2c(O)cc(-c3ccccc3CO)c(Cl)c12 [Example 255, 5-Chloro-8-hydroxy-6-(2-hydroxymethyl-phenyl)-3H-quinazolin-4-one] | – |
| 36 | CN1CCC(CCOCc2ccccc2-c2cc(O)c3nc[nH]c(=O)c3c2)CC1 [Example 256, 8-Hydroxy-6-(2-((2-(1-methylpiperidin-4-yl)ethoxy)methyl)phenyl)quinazolin-4(3H)-one] | – |
| – | Cc1ccc(C(=O)c2cc(O)c(O)c([N+](=O)[O-])c2)cc1 [Tolcapone, tolcapone] | anti-depressant activity [1]: anti-depressant activity; brain/plasma ratio [2]: ~0.01; anti-depressant activity (rat anhedonia model): anti-depressant activity |
